The assay addresses T1, NS5B from the BK strain (genotype 1b) (Hepatitis C virus genotype 1b, UniProt P26663).
T1 construct: NS5B from the BK strain (genotype 1b) is expressed in E. coli as a protein in which the 21 C-terminal amino acids are replaced; made in house; host or cells: E. coli
Description: Hepatitis C polymerase inhibition, NS5B BK strain, 33P-GTP filter assay. Type of assay: biochemical. As to conditions: Table 1A; for inhibition at 20 µM: 20 μM compound, read-out: HCV pol % inh at 20 μM; for IC50: NS5B BK strain, read-out: HCV pol BK IC50. In outline: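 E. coli-expressed NS5B (BK, genotype 1b) with the 21 C-terminal residues replaced by a linker-His6 tag was preincubated with compound for 15 min at room temperature. It then extended a hairpin-primed heteropolymeric RNA (~3 nM, ~760 nt product) with α-[33P]-GTP for 2 h at 22–25° C. The reaction was stopped with EDTA, and incorporated label was counted on filters.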

By IC50 is commonly meant the point on the concentration scale where inhibition reaches its midpoint.

T1 sequence (P26663 2420-2989): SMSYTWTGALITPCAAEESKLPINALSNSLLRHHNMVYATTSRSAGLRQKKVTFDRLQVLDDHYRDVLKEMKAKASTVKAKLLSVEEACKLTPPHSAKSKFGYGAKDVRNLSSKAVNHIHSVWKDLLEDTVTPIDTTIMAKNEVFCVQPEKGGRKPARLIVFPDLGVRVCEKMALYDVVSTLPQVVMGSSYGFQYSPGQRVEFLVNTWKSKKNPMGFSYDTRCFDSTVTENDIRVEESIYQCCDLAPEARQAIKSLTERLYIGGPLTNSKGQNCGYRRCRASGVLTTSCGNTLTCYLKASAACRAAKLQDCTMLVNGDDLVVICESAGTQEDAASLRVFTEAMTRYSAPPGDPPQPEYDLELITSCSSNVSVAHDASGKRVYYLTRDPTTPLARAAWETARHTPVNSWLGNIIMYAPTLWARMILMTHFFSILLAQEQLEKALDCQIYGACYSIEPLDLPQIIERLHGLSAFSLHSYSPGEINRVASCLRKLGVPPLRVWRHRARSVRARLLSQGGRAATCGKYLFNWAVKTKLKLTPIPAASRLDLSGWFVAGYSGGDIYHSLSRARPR

With `N#Cc1cccc2[nH]c3c(c12)CCOC3(CC(=O)O)c1cccc([N+](=O)[O-])c1` (stereo not shown) [Example 65, [5-cyano-1-(3-nitrophenyl)-1,3,4,9-tetrahydropyrano[3,4-b]indol-1-yl]acetic acid], the inhibition at 20 µM turned out to be 27% and the IC50 is above 20 µM. The like results for `N#Cc1cccc2[nH]c3c(c12)CCOC3(CC(=O)O)c1ccccc1F` (stereo not shown) [Example 66, [5-cyano-1-(2-fluorophenyl)-1,3,4,9-tetrahydropyrano[3,4-b]indol-1-yl]acetic acid] were, in that order, 28% and above 20 µM. On the same counts, the results for `CCCCC1(CC(=O)O)OCCc2c1[nH]c1c(Cl)ccc(Cl)c21` (stereo not shown) [Example 67, (1-butyl-5,8-dichloro-1,3,4,9-tetrahydropyrano[3,4-b]indol-1-yl)acetic acid] are 78% and 0.76 µM. Turning to `CCCCC1(CC(=O)O)OCCc2c1[nH]c1cccc(Br)c21` (stereo not shown) [Example 68, (5-bromo-1-butyl-1,3,4,9-tetrahydropyrano[3,4-b]indol-1-yl)acetic acid], the inhibition at 20 µM was 61% and the IC50 turned out to be 10.3 µM. For the molecule `CCCCC1(CC(=O)O)OCCc2c1[nH]c1cccc(Cl)c21` (stereo not shown) [Example 69, (1-butyl-5-chloro-1,3,4,9-tetrahydropyrano[3,4-b]indol-1-yl)acetic acid], the IC50 came out at 5.5 µM. `COC(=O)CC1(CC(=O)O)OCCc2c1[nH]c1cccc(Cl)c21` (stereo not shown) [Example 70, [5-chloro-1-(2-methoxy-2-oxoethyl)-1,3,4,9-tetrahydropyrano[3,4-b]indol-1-yl]acetic acid]: the inhibition at 20 µM came to 22% and the IC50 was above 5 µM. Take `O=C(O)CC1(CC(=O)O)OCCc2c1[nH]c1cccc(Cl)c21` [Example 71, [1-(carboxymethyl)-5-chloro-1,3,4,9-tetrahydropyrano[3,4-b]indol-1-yl]acetic acid]: the inhibition at 20 µM amounted to 45% and the IC50 is above 5 µM.

Consider `CC1(CC(=O)O)OCCc2c1[nH]c1c(Cl)cccc21` (stereo not shown) [Example 72, (8-chloro-1-methyl-1,3,4,9-tetrahydropyrano[3,4-b]indol-1-yl)acetic acid], for which the inhibition at 20 µM was 45% and the IC50 was above 20 µM. On the same counts, the results for `CCC1(CC(=O)O)OCCc2c1[nH]c1c(Cl)cccc21` (stereo not shown) [Example 73, (8-chloro-1-ethyl-1,3,4,9-tetrahydropyrano[3,4-b]indol-1-yl)acetic acid] are 22% and above 20 µM.

With `CCCC1(CC(=O)O)OCCc2c1[nH]c1c(Cl)cccc21` (stereo not shown) [Example 74, (8-chloro-1-propyl-1,3,4,9-tetrahydropyrano[3,4-b]indol-1-yl)acetic acid], the inhibition at 20 µM is 69% and the IC50 turned out to be 17.9 µM. Regarding `CC(C)C1(CC(=O)O)OCCc2c1[nH]c1c(Cl)cccc21` (stereo not shown) [Example 75, (8-chloro-1-isopropyl-1,3,4,9-tetrahydropyrano[3,4-b]indol-1-yl)acetic acid], the inhibition at 20 µM is 17% and the IC50 was above 20 µM. On the same counts, the results for `CCCCC1(CC(=O)O)OCCc2c1[nH]c1c(Cl)cccc21` (stereo not shown) [Example 76, (1-butyl-8-chloro-1,3,4,9-tetrahydropyrano[3,4-b]indol-1-yl)acetic acid] are 29% and above 20 µM. The like results for `C/C=C/CCC1(CC(=O)O)OCCc2c1[nH]c1c(Cl)cccc21` (stereo not shown) [Example 77, {8-chloro-1-[(3E)-pent-3-enyl]-1,3,4,9-tetrahydropyrano[3,4-b]indol-1-yl}acetic acid] were, in that order, 16% and above 20 µM. The like results for `O=C(O)CC1(c2ccccc2)OCCc2c1[nH]c1c(Cl)cccc21` (stereo not shown) [Example 78, (8-chloro-1-phenyl-1,3,4,9-tetrahydropyrano[3,4-b]indol-1-yl)acetic acid] were, in that order, 26% and above 20 µM. Consider `O=C(O)CC1(c2ccoc2)OCCc2c1[nH]c1c(Cl)cccc21` (stereo not shown) [Example 79, [8-chloro-1-(3-furyl)-1,3,4,9-tetrahydropyrano[3,4-b]indol-1-yl]acetic acid], for which the inhibition at 20 µM turned out to be 40% and the IC50 was above 20 µM. On the same counts, the results for `CC1(CC(=O)O)OCCc2c1[nH]c1c(Br)cccc21` (stereo not shown) [Example 80, (8-bromo-1-methyl-1,3,4,9-tetrahydropyrano[3,4-b]indol-1-yl)acetic acid] are 35% and above 20 µM. The like results for `CCC1(CC(=O)O)OCCc2c1[nH]c1c(Br)cccc21` (stereo not shown) [Example 81, (8-bromo-1-ethyl-1,3,4,9-tetrahydropyrano[3,4-b]indol-1-yl)acetic acid] were, in that order, 27% and above 20 µM. In the case of `CCCC1(CC(=O)O)OCCc2c1[nH]c1c(Br)cccc21` (stereo not shown) [Example 82, (8-bromo-1-propyl-1,3,4,9-tetrahydropyrano[3,4-b]indol-1-yl)acetic acid], the inhibition at 20 µM was found to be 73% and the IC50 is 9.2 µM.

Turning to `CC(C)C1(CC(=O)O)OCCc2c1[nH]c1c(Br)cccc21` (stereo not shown) [Example 83, (8-bromo-1-isopropyl-1,3,4,9-tetrahydropyrano[3,4-b]indol-1-yl)acetic acid], the inhibition at 20 µM worked out at 41% and the IC50 was above 20 µM.

With `CCCCC1(CC(=O)O)OCCc2c1[nH]c1c(Br)cccc21` (stereo not shown) [Example 84, (8-bromo-1-butyl-1,3,4,9-tetrahydropyrano[3,4-b]indol-1-yl)acetic acid], the inhibition at 20 µM came to 46% and the IC50 came to 19.7 µM. The like results for `C/C=C/CCC1(CC(=O)O)OCCc2c1[nH]c1c(Br)cccc21` (stereo not shown) [Example 85, {8-bromo-1-[(3E)-pent-3-enyl]-1,3,4,9-tetrahydropyrano[3,4-b]indol-1-yl}acetic acid] were, in that order, 18% and above 20 µM. Regarding `O=C(O)CC1(c2ccccc2)OCCc2c1[nH]c1c(Br)cccc21` (stereo not shown) [Example 86, (8-bromo-1-phenyl-1,3,4,9-tetrahydropyrano[3,4-b]indol-1-yl)acetic acid], the inhibition at 20 µM amounted to 20% and the IC50 was above 20 µM.

`O=C(O)CC1(c2ccc(C(=O)O)cc2)OCCc2c1[nH]c1c(Br)cccc21` (stereo not shown) [Example 87, 4-[8-bromo-1-(carboxymethyl)-1,3,4,9-tetrahydropyrano[3,4-b]indol-1-yl]benzoic acid]: the inhibition at 20 µM is 42% and the IC50 is above 20 µM.

In the case of `O=C(O)CC1(c2ccoc2)OCCc2c1[nH]c1c(Br)cccc21` (stereo not shown) [Example 88, [8-bromo-1-(3-furyl)-1,3,4,9-tetrahydropyrano[3,4-b]indol-1-yl]acetic acid], the inhibition at 20 µM came out at 30% and the half-maximal inhibitory concentration (IC50) is above 20 µM. On the same counts, the results for `CCCC1(CC(=O)O)OCCc2c1[nH]c1c(-c3ccccc3)cccc21` (stereo not shown) [Example 89, (8-phenyl-1-propyl-1,3,4,9-tetrahydropyrano[3,4-b]indol-1-yl)acetic acid] are 36% and above 20 µM. On the same counts, the results for `CCCC1(CC(=O)O)OCCc2c1[nH]c1c(-c3ccc(C)cc3)cccc21` (stereo not shown) [Example 90, [8-(4-methylphenyl)-1-propyl-1,3,4,9-tetrahydropyrano[3,4-b]indol-1-yl]acetic acid] are 2% and above 20 µM. On the same counts, the results for `CCCC1(CC(=O)O)OCCc2c1[nH]c1c(-c3ccc(OC)cc3)cccc21` (stereo not shown) [Example 91, [8-(4-methoxyphenyl)-1-propyl-1,3,4,9-tetrahydropyrano[3,4-b]indol-1-yl]acetic acid] are below 5% and above 20 µM.

Regarding `CCCC1(CC(=O)O)OCCc2c1[nH]c1c(-c3ccc(Cl)cc3)cccc21` (stereo not shown) [Example 92, [8-(4-chlorophenyl)-1-propyl-1,3,4,9-tetrahydropyrano[3,4-b]indol-1-yl]acetic acid], the inhibition at 20 µM was determined as 35% and the IC50 is above 20 µM. On the same counts, the results for `CCCC1(CC(=O)O)OCCc2c1[nH]c1c(-c3ccc(Cl)cc3Cl)cccc21` (stereo not shown) [Example 93, [8-(2,4-dichlorophenyl)-1-propyl-1,3,4,9-tetrahydropyrano[3,4-b]indol-1-yl]acetic acid] are 64% and above 20 µM.

Regarding `CCCC1(CC(=O)O)OCCc2c1[nH]c1c(-c3ccc(C(F)(F)F)cc3)cccc21` (stereo not shown) [Example 94, {1-propyl-8-[4-(trifluoromethyl)phenyl]-1,3,4,9-tetrahydropyrano[3,4-b]indol-1-yl}acetic acid], the inhibition at 20 µM was found to be 33% and the 50% inhibitory concentration (IC50) is above 20 µM. Take `CCCC1(CC(=O)O)OCCc2c1[nH]c1c(-c3cccc(Br)c3)cccc21` (stereo not shown) [Example 96, [8-(3-bromophenyl)-1-propyl-1,3,4,9-tetrahydropyrano[3,4-b]indol-1-yl]acetic acid]: the inhibition at 20 µM worked out at 37% and the IC50 was above 20 µM. The like results for `CCCC1(CC(=O)O)OCCc2c1[nH]c1c(-c3cccc(N)c3)cccc21` (stereo not shown) [Example 97, [8-(3-aminophenyl)-1-propyl-1,3,4,9-tetrahydropyrano[3,4-b]indol-1-yl]acetic acid] were, in that order, 21% and above 20 µM. In the case of `CCCC1(CC(=O)O)OCCc2c1[nH]c1c(C#N)cccc21` (stereo not shown) [Example 98, (8-cyano-1-propyl-1,3,4,9-tetrahydropyrano[3,4-b]indol-1-yl)acetic acid], the inhibition at 20 µM amounted to 44% and the IC50 was above 20 µM. On the same counts, the results for `CC1(CC(=O)O)OCCc2c1[nH]c1c(Cl)cc(Cl)cc21` (stereo not shown) [Example 99, (6,8-dichloro-1-methyl-1,3,4,9-tetrahydropyrano[3,4-b]indol-1-yl)acetic acid] are 32% and above 20 µM.

Source of the values: patent US7217730B2, “Method for the use of pyranoindole derivatives to treat infection with Hepatitis C virus” (Wyeth, priority 2002, dated 2007).
